# Tested on: Mus musculus
# Assay: Toxicity in human A431 cells xenografted CD1 Harlan mouse assessed as body weight loss at 60 mg/kg, ip qd administered for 5 days
# Assay type: organism-based, A-431
# Set-up: dose 60 mg/kg, route intraperitoneal
# Conditions: in vivo, 120 h
row,Compound,Activity
1,CCNC(=O)c1noc(-c2cc(C(C)C)c(O)cc2O)c1-c1ccc(CN2CCOCC2)cc1 [LUMINESPIB],8%

# Target: Heat shock protein HSP 90-beta (Homo sapiens, UniProt P08238)
# Assay: Binding affinity to Hsp90 after 4 hrs by fluorescence polarization assay
# Conditions: not given
# Chain of Heat shock protein HSP 90-beta (P08238 whole entry): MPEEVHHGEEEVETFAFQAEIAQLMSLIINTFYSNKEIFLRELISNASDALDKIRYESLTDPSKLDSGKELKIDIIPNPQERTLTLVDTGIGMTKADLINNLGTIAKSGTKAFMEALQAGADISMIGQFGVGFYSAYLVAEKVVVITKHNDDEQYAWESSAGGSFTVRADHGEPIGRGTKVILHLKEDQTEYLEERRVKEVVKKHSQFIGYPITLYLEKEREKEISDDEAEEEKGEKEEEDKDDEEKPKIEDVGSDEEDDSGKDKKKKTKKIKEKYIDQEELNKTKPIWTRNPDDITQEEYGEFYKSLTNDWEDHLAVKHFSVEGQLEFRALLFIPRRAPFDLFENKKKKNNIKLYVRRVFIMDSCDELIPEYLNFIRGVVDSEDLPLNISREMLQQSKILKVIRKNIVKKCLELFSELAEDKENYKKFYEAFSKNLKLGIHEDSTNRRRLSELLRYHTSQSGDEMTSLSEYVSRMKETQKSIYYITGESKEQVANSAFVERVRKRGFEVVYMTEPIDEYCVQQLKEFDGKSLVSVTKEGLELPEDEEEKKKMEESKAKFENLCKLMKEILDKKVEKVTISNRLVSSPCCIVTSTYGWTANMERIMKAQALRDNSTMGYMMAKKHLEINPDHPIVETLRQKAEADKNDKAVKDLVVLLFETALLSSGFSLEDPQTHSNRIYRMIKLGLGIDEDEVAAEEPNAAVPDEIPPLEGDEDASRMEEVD
row,Compound,IC50
1,CCNC(=O)c1noc(-c2cc(C(C)C)c(O)cc2O)c1NC(=O)[C@H]1CC[C@H](N2CCOCC2)CC1,< 5 nM
2,CCNC(=O)c1noc(-c2cc(C(C)C)c(O)cc2O)c1NC(=O)c1ccc2ccsc2c1,20 nM
3,CCNC(=O)c1noc(-c2cc(C(C)C)c(O)cc2O)c1NC(=O)c1cc2ccccc2n1C,62 nM
4,CCNC(=O)c1cc(C(=O)Nc2c(C(=O)NCC)noc2-c2cc(C(C)C)c(O)cc2O)on1,24 nM
5,CCNC(=O)c1noc(-c2cc(C(C)C)c(O)cc2O)c1NC(=O)c1ccc2ncoc2c1,15 nM
6,CCNC(=O)c1noc(-c2cc(C(C)C)c(O)cc2O)c1NC(=O)[C@H]1CC[C@@H](C(N)=O)CC1,< 5 nM
7,CCNC(=O)c1noc(-c2cc(C(C)C)c(O)cc2O)c1NC(=O)CCN1CCN(C)CC1,120 nM
8,CCNC(=O)c1noc(-c2cc(C(C)C)c(O)cc2O)c1NC(=O)[C@H]1CC[C@H](C(N)=O)CC1,< 5 nM
9,CCNC(=O)c1noc(-c2cc(C(C)C)c(O)cc2O)c1NC(=O)C1CC(O)C1 (configuration not stated),14 nM
10,CCNC(=O)c1noc(-c2cc(C(C)C)c(O)cc2O)c1NC(=O)[C@H]1CC[C@H](CN2CCOCC2)CC1,8.8 nM
11,CCNC(=O)c1noc(-c2cc(C(C)C)c(O)cc2O)c1NC(=O)[C@H]1CC[C@H](CNC)CC1,8.6 nM
12,CCNC(=O)c1noc(-c2cc(C(C)C)c(O)cc2O)c1NC(=O)c1ccc(-n2cccc2)cc1,32 nM
13,CCNC(=O)c1noc(-c2cc(C(C)C)c(O)cc2O)c1NC(=O)c1ccc(N2CCCC2)cc1,22 nM
14,COc1ccc(C(=O)Nc2c(C(=O)N3CC(F)(F)C3)noc2-c2cc(Cl)c(O)cc2O)cc1,> 100000 nM
15,CCNC(=O)c1noc(-c2cc(C(C)C)c(O)cc2O)c1NC(=O)[C@H]1CC[C@@H](CN2CCOCC2)CC1,19.6 nM
16,CCNC(=O)c1noc(-c2cc(C(C)C)c(O)cc2O)c1NC(=O)[C@H]1CC[C@H](CO)CC1,< 5 nM
17,CCNC(=O)c1noc(-c2cc(Cl)c(O)cc2O)c1NC(C)=O,37 nM

row,Compound,IC50
1,CCNC(=O)c1noc(-c2cc(C(C)C)c(O)cc2O)c1NC(=O)c1oc2ccc(OC)cc2c1C,48 nM
2,CCNC(=O)c1noc(-c2cc(Cl)c(O)cc2O)c1NC(=O)c1ccc(OC)c(OC)c1,163 nM
3,CCNC(=O)c1noc(-c2cc(C(C)C)c(O)cc2O)c1NC(=O)c1ccc(N2CCNCC2)cc1,32 nM
4,CCNC(=O)c1noc(-c2cc(C(C)C)c(O)cc2O)c1NC(=O)CCN1CCOCC1,214 nM
5,CCNC(=O)c1noc(-c2cc(C(C)C)c(O)cc2O)c1NC(=O)[C@H]1CC[C@H](CN)CC1,40 nM
6,CCCCC[C@H]1CC[C@H](C(=O)Nc2c(C(=O)NCC)noc2-c2cc(C(C)C)c(O)cc2O)CC1,260 nM
7,CCNC(=O)c1noc(-c2cc(C(C)C)c(O)cc2O)c1NC(=O)[C@H]1CC[C@H](O)CC1,< 5 nM
8,CCNC(=O)c1noc(-c2cc(C(C)C)c(O)cc2O)c1NC(=O)[C@@H]1CC[C@H](C(=O)OC)C1,< 5 nM
9,CCNC(=O)c1noc(-c2cc(C(C)C)c(O)cc2O)c1NC(=O)[C@H]1CC[C@@H](O)CC1,< 5 nM
10,CCNC(=O)c1noc(-c2cc(Cl)c(O)cc2O)c1NC1CCCCC1,620 nM
11,CCNC(=O)c1noc(-c2cc(C(C)C)c(O)cc2O)c1NC(=O)c1ccc(OC)c(F)c1,34 nM
12,CCNC(=O)c1noc(-c2cc(C(C)C)c(O)cc2O)c1NC(=O)c1ccc2ccn(C)c2c1,34 nM
13,CCNC(=O)c1noc(-c2cc(C(C)C)c(O)cc2O)c1NC(=O)c1ccc(N(C)C)cc1,34 nM
14,CCNC(=O)c1noc(-c2cc(C(C)C)c(O)cc2O)c1NC(=O)[C@H]1CC[C@H](OC(=O)CN)CC1,< 5 nM
15,CCNC(=O)c1noc(-c2cc(C(C)C)c(O)cc2O)c1NC(=O)c1cc(C(C)=O)on1,19 nM
16,CCNC(=O)c1noc(-c2cc(Cl)c(O)cc2O)c1NC(=O)c1ccc(OC)cc1,184 nM
17,CCNC(=O)c1noc(-c2cc(C(C)C)c(O)cc2O)c1NC(=O)c1sc(C)nc1C,10 nM

# Tested on: NCI-H460
# Assay: Cytotoxicity against human NCI-H460 after 72 hrs by sulforhodamine B assay
# Assay type: functional, cell-based
# Conditions: NCI-H460, 72 h
row,Compound,IC50
1,CCNC(=O)c1noc(-c2cc(C(C)C)c(O)cc2O)c1NC(=O)[C@H]1CC[C@H](N2CCOCC2)CC1,680 nM
2,CCNC(=O)c1noc(-c2cc(C(C)C)c(O)cc2O)c1NC(=O)c1ccc2ccsc2c1,180 nM
3,CCNC(=O)c1noc(-c2cc(C(C)C)c(O)cc2O)c1NC(=O)c1cc2ccccc2n1C,360 nM
4,CCNC(=O)c1cc(C(=O)Nc2c(C(=O)NCC)noc2-c2cc(C(C)C)c(O)cc2O)on1,> 1000 nM
5,CCNC(=O)c1noc(-c2cc(C(C)C)c(O)cc2O)c1NC(=O)c1ccc2ncoc2c1,110 nM
6,CCNC(=O)c1noc(-c2cc(C(C)C)c(O)cc2O)c1NC(=O)[C@H]1CC[C@@H](C(N)=O)CC1,990 nM
7,CCNC(=O)c1noc(-c2cc(C(C)C)c(O)cc2O)c1NC(=O)CCN1CCN(C)CC1,> 1000 nM
8,CCNC(=O)c1noc(-c2cc(C(C)C)c(O)cc2O)c1NC(=O)[C@H]1CC[C@H](C(N)=O)CC1,> 1000 nM
9,CCNC(=O)c1noc(-c2cc(C(C)C)c(O)cc2O)c1NC(=O)C1CC(O)C1 (configuration not stated),920 nM
10,CCNC(=O)c1noc(-c2cc(C(C)C)c(O)cc2O)c1NC(=O)[C@H]1CC[C@H](CN2CCOCC2)CC1,130 nM
11,CCNC(=O)c1noc(-c2cc(C(C)C)c(O)cc2O)c1NC(=O)[C@H]1CC[C@H](CNC)CC1,> 1000 nM
12,CCNC(=O)c1noc(-c2cc(C(C)C)c(O)cc2O)c1NC(=O)c1ccc(-n2cccc2)cc1,> 1000 nM
13,CCNC(=O)c1noc(-c2cc(C(C)C)c(O)cc2O)c1NC(=O)c1ccc(N2CCCC2)cc1,810 nM
14,COc1ccc(C(=O)Nc2c(C(=O)N3CC(F)(F)C3)noc2-c2cc(Cl)c(O)cc2O)cc1,> 1000 nM
15,CCNC(=O)c1noc(-c2cc(C(C)C)c(O)cc2O)c1NC(=O)[C@H]1CC[C@@H](CN2CCOCC2)CC1,140 nM
16,CCNC(=O)c1noc(-c2cc(C(C)C)c(O)cc2O)c1NC(=O)[C@H]1CC[C@H](CO)CC1,600 nM
17,CCNC(=O)c1noc(-c2cc(Cl)c(O)cc2O)c1NC(C)=O,> 1000 nM
18,CCNC(=O)c1noc(-c2cc(C(C)C)c(O)cc2O)c1NC(=O)c1oc2ccc(OC)cc2c1C,750 nM

row,Compound,IC50
1,CCNC(=O)c1noc(-c2cc(Cl)c(O)cc2O)c1NC(=O)c1ccc(OC)c(OC)c1,> 1000 nM
2,CCNC(=O)c1noc(-c2cc(C(C)C)c(O)cc2O)c1NC(=O)c1ccc(N2CCNCC2)cc1,> 1000 nM
3,CCNC(=O)c1noc(-c2cc(C(C)C)c(O)cc2O)c1NC(=O)CCN1CCOCC1,110 nM
4,CCNC(=O)c1noc(-c2cc(C(C)C)c(O)cc2O)c1NC(=O)[C@H]1CC[C@H](CN)CC1,> 1000 nM
5,CCCCC[C@H]1CC[C@H](C(=O)Nc2c(C(=O)NCC)noc2-c2cc(C(C)C)c(O)cc2O)CC1,> 1000 nM
6,CCNC(=O)c1noc(-c2cc(C(C)C)c(O)cc2O)c1NC(=O)[C@H]1CC[C@H](O)CC1,> 1000 nM
7,CCNC(=O)c1noc(-c2cc(C(C)C)c(O)cc2O)c1NC(=O)[C@@H]1CC[C@H](C(=O)OC)C1,22 nM
8,CCNC(=O)c1noc(-c2cc(C(C)C)c(O)cc2O)c1NC(=O)[C@H]1CC[C@@H](O)CC1,500 nM
9,CCNC(=O)c1noc(-c2cc(Cl)c(O)cc2O)c1NC1CCCCC1,> 1000 nM
10,CCNC(=O)c1noc(-c2cc(C(C)C)c(O)cc2O)c1NC(=O)c1ccc(OC)c(F)c1,55 nM
11,CCNC(=O)c1noc(-c2cc(C(C)C)c(O)cc2O)c1NC(=O)c1ccc2ccn(C)c2c1,87 nM
12,CCNC(=O)c1noc(-c2cc(C(C)C)c(O)cc2O)c1NC(=O)c1ccc(N(C)C)cc1,240 nM
13,CCNC(=O)c1noc(-c2cc(C(C)C)c(O)cc2O)c1NC(=O)[C@H]1CC[C@H](OC(=O)CN)CC1,> 1000 nM
14,CCNC(=O)c1noc(-c2cc(C(C)C)c(O)cc2O)c1NC(=O)c1cc(C(C)=O)on1,82 nM
15,CCNC(=O)c1noc(-c2cc(Cl)c(O)cc2O)c1NC(=O)c1ccc(OC)cc1,> 1000 nM
16,CCNC(=O)c1noc(-c2cc(C(C)C)c(O)cc2O)c1NC(=O)c1sc(C)nc1C,560 nM
17,CCNC(=O)c1noc(-c2cc(C(C)C)c(O)cc2O)c1-c1ccc(CN2CCOCC2)cc1 [LUMINESPIB],2.4 nM

# Tested on: not listed separately
# Assay: Toxicity in human A431 cells xenografted ip dosed CD1 Harlan mouse
# Assay type: organism-based, A-431
# Conditions: in vivo
row,Compound,MTD
1,CCNC(=O)c1noc(-c2cc(C(C)C)c(O)cc2O)c1-c1ccc(CN2CCOCC2)cc1 [LUMINESPIB],60 mg/kg

# Tested on: A-431
# Assay: Antitumor activity against human A431 cells xenografted in CD1 Harlan mouse assessed as tumor volume inhibition at 60 mg/kg, ip qd administered for 5 days
# Assay type: functional
# Conditions: A-431, ip, 120 h, route intraperitoneal
row,Compound,inhibition in vivo at 60 mg/kg
1,CCNC(=O)c1noc(-c2cc(C(C)C)c(O)cc2O)c1-c1ccc(CN2CCOCC2)cc1 [LUMINESPIB],48%

# Source: ChEMBL document CHEMBL1938264, “Novel 3,4-isoxazolediamides as potent inhibitors of chaperone heat shock protein 90” (J Med Chem, 2011)
